Reference: ChEMBL document CHEMBL4507311, “Data for DCP probe A-1155463” (2021)
Active and inactive are the calls of the source. No cut-off for these calls is given here.

Assays:
[1] = target: T1, Alpha-1B adrenergic receptor (Homo sapiens) (UniProt P35368); assay: Alpha1B (h) Eurofins-Cerep binding assay; design: ligand concentration 0.15 nM; settings: filed as antagonist, Compound concentration 10.0 uM
T1 sequence (whole entry): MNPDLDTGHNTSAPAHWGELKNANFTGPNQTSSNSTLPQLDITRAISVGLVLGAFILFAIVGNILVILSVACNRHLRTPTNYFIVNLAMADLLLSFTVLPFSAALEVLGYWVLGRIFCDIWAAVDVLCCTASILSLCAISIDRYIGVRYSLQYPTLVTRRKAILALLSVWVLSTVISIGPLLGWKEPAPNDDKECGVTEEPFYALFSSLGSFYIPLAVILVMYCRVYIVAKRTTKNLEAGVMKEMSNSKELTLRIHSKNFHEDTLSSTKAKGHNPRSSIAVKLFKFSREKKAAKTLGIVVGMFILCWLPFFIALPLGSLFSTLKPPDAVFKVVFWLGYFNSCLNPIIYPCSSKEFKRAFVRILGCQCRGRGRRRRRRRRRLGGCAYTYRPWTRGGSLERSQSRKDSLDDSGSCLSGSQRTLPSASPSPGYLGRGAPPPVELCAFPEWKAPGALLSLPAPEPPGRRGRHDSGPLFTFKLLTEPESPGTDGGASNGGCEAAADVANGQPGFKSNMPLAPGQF

[2] = target: Induced myeloid leukemia cell differentiation protein Mcl-1 (Homo sapiens, UniProt Q07820); assay: Time-resolved fluorescence energy transfer (TR-FRET) with MCL1
Sequence of Induced myeloid leukemia cell differentiation protein Mcl-1 (Q07820 whole entry): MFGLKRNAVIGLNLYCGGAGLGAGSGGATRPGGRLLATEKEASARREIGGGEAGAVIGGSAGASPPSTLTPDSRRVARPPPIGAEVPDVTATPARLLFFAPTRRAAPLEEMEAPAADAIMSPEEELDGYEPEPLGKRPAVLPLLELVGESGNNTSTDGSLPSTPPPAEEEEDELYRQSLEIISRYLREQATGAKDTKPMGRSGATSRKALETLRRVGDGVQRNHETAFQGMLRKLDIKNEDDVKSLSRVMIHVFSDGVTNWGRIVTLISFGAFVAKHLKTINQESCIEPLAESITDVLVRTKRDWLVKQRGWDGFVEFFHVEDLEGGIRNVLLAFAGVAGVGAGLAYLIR

[3] = target: Alpha-1A adrenergic receptor (Homo sapiens) (UniProt P35348); assay: Alpha1A (h) Eurofins-Cerep binding assay; design: ligand concentration 0.1 nM; settings: filed as antagonist, Compound concentration 10.0 uM
Sequence of Alpha-1A adrenergic receptor (Homo sapiens) (P35348 whole entry): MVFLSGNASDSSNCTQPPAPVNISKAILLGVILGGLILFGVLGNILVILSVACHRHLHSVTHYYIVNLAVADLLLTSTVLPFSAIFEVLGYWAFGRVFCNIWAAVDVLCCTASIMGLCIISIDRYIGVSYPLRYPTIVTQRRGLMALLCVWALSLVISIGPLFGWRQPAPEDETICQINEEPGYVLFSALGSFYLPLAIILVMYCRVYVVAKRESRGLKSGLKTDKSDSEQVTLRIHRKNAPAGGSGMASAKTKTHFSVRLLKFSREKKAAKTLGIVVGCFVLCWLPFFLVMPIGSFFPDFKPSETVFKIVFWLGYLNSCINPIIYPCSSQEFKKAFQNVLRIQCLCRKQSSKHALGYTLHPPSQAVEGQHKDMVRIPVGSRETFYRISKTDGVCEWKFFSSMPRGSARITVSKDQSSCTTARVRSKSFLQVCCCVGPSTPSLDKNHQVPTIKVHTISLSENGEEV

[4] = target: Delta-type opioid receptor (Homo sapiens, UniProt P41143); assay: delta (DOP) (h) Eurofins-Cerep binding assay; design: ligand concentration 0.5 nM; settings: filed as agonist, Compound concentration 10.0 uM
Sequence of Delta-type opioid receptor (P41143 whole entry): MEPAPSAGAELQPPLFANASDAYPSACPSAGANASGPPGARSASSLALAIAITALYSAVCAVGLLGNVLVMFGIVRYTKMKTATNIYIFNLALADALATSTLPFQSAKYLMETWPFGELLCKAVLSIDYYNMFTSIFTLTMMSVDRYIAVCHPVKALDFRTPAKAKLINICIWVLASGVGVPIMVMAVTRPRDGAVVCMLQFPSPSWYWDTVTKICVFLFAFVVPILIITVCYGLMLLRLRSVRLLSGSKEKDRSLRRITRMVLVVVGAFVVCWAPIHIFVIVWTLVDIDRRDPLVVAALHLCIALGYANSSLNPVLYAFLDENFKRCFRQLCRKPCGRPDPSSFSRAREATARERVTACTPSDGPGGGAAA

[5] = target: Sodium/potassium-transporting ATPase (Sus scrofa) (UniProt P05027+P05024+D2WKD8+D2WKD7+F1ST41); assay: ATPase (Na+/K+) Eurofins-Cerep enzyme and uptake assay; format: protein-complex assay; settings: Compound concentration 10.0 uM
[6] = target: T2, 5-hydroxytryptamine receptor 1A (Homo sapiens) (UniProt P08908); assay: 5-HT1A (h) Eurofins-Cerep binding assay; design: ligand concentration 0.5 nM; settings: filed as agonist, Compound concentration 10.0 uM
T2 sequence (whole entry): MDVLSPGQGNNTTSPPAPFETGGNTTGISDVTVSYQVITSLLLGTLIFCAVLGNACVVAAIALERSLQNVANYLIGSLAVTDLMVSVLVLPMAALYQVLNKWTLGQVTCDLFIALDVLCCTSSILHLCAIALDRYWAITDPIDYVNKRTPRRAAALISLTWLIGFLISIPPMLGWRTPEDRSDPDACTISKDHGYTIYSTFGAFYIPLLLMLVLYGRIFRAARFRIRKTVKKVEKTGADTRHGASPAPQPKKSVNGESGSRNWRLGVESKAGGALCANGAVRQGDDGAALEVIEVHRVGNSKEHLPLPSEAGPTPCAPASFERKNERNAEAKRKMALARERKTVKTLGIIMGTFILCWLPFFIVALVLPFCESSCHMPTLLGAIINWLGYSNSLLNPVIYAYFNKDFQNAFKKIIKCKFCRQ

[7] = target: Translocator protein (Rattus norvegicus) (UniProt P16257); assay: BZD (peripheral) Eurofins-Cerep binding assay; design: ligand concentration 0.2 nM; settings: filed as antagonist, Compound concentration 10.0 uM
MOLT-4 = assay: CellTiter-Glo Luminescent Cell Viability Assay (BCL-XL dependent cell line MOLT-4); format: functional, cell-based; settings: Homo sapiens
[8] = target: Adenosine receptor A1 (Homo sapiens) (UniProt P30542); assay: A1 (h) Eurofins-Cerep binding assay; design: ligand concentration 1 nM; settings: filed as antagonist, Compound concentration 10.0 uM
Sequence of Adenosine receptor A1 (Homo sapiens) (P30542 whole entry): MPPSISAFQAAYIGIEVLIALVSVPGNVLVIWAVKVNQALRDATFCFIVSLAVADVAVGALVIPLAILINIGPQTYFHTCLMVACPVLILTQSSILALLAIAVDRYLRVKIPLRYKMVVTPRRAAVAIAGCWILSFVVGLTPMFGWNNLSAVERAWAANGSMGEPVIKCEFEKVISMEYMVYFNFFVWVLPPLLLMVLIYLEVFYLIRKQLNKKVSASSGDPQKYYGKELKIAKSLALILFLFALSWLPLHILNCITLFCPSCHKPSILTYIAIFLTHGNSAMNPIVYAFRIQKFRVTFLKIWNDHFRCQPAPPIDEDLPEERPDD

[9] = target: Androgen receptor (Homo sapiens) (UniProt P10275); assay: AR (h) Eurofins-Cerep binding assay; design: ligand concentration 1 nM; settings: filed as agonist, Compound concentration 10.0 uM
Bcl-2-like protein 1 = Bcl-2-like protein 1 (Homo sapiens, UniProt Q07817); assay: Time-resolved fluorescence energy transfer (TR-FRET) with BCL2L1
Sequence of Bcl-2-like protein 1 (Q07817 whole entry): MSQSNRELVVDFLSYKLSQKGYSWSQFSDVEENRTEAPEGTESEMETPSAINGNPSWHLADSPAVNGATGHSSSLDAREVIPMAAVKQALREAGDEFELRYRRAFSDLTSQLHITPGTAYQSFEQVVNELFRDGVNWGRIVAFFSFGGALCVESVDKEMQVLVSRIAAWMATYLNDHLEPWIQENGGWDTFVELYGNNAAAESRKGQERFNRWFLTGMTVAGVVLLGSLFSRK

[10] = target: Histamine H1 receptor (Homo sapiens) (UniProt P35367); assay: H1 (h) Eurofins-Cerep binding assay; design: ligand concentration 1 nM; settings: filed as antagonist, Compound concentration 10.0 uM
[11] = target: Apoptosis regulator Bcl-2 (Homo sapiens, UniProt P10415); assay: Time-resolved fluorescence energy transfer (TR-FRET) with BCL2
Sequence of Apoptosis regulator Bcl-2 (P10415 whole entry): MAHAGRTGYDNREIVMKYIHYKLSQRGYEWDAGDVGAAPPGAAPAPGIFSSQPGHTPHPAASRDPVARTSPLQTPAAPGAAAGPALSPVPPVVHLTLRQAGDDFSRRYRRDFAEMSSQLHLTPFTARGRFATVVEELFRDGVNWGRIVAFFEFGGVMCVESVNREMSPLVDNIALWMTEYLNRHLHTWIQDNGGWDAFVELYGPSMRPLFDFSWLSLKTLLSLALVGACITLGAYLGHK

[12] = target: Angiotensin-converting enzyme (Homo sapiens) (UniProt P12821); assay: ACE (h) Eurofins-Cerep enzyme and uptake assay; settings: Compound concentration 10.0 uM
Sequence of Angiotensin-converting enzyme (Homo sapiens) (P12821 whole entry): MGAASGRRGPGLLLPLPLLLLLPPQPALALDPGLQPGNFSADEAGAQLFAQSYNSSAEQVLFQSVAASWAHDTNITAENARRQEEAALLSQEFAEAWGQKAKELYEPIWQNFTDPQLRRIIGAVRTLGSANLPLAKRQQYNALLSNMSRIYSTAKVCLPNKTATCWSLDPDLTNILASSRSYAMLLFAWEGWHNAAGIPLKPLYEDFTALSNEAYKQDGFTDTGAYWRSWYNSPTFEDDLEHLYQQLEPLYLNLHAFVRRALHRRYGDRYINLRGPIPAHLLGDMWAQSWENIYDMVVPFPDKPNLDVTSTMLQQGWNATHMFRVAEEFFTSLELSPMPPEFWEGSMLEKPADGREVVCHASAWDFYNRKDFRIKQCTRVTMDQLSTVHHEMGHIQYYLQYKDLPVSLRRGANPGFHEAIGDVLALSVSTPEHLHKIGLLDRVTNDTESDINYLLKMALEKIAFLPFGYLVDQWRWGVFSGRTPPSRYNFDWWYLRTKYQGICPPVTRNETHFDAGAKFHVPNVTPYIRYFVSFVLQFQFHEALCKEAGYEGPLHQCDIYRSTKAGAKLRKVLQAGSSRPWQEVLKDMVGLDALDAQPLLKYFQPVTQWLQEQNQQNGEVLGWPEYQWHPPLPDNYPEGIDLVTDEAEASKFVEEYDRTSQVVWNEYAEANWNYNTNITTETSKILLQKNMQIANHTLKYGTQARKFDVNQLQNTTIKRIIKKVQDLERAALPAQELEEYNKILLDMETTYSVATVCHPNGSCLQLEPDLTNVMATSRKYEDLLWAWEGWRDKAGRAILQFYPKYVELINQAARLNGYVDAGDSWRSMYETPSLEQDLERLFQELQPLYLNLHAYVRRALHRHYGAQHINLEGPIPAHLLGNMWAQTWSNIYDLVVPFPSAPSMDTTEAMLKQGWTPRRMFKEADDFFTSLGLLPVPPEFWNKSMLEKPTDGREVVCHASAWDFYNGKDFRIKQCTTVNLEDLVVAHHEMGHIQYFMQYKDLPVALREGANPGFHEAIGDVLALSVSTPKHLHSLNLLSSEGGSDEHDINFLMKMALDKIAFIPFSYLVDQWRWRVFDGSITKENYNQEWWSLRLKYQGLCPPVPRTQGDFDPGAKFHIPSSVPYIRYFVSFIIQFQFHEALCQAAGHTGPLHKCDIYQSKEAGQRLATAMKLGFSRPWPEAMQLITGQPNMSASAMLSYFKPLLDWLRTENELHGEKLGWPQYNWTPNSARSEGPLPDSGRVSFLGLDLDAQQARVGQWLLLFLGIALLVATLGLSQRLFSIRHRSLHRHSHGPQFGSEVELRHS

[13] = target: Beta-1 adrenergic receptor (Homo sapiens) (UniProt P08588); assay: Beta1 (h) Eurofins-Cerep binding assay; design: ligand concentration 0.3 nM; settings: filed as agonist, Compound concentration 10.0 uM
Sequence of Beta-1 adrenergic receptor (Homo sapiens) (P08588 whole entry, looked up): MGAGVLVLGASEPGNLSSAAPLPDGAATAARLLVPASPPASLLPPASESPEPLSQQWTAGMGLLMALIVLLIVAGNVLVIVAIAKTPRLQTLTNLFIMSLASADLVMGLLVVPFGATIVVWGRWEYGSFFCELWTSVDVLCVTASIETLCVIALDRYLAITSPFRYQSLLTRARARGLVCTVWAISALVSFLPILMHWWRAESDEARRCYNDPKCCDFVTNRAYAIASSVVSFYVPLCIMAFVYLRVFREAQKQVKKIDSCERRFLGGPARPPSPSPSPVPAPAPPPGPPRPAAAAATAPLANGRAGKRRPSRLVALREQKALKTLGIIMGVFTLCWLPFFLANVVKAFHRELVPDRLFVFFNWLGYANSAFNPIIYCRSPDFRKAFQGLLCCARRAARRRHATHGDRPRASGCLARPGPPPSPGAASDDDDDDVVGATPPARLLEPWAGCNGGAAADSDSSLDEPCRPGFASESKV

[14] = target: D(2) dopamine receptor (Homo sapiens) (UniProt P14416); assay: D2S (h) Eurofins-Cerep binding assay; design: ligand concentration 0.3 nM; settings: filed as antagonist, Compound concentration 10.0 uM
Sequence of D(2) dopamine receptor (Homo sapiens) (P14416 whole entry): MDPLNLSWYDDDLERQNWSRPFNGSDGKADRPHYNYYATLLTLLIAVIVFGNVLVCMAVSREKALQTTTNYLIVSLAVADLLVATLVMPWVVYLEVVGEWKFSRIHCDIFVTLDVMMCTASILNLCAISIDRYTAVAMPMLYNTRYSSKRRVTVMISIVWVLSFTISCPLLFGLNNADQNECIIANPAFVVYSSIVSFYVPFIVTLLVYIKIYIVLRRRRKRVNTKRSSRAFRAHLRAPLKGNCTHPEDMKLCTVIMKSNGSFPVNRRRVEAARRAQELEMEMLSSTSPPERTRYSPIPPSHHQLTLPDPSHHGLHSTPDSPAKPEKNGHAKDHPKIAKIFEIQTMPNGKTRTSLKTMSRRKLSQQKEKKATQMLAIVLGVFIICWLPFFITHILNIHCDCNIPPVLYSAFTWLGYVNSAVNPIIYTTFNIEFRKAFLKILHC

[15] = target: T3, 5-hydroxytryptamine receptor 2C (Homo sapiens) (UniProt P28335); assay: 5-HT2C (h) Eurofins-Cerep binding assay; design: ligand concentration 1 nM; settings: filed as antagonist, Compound concentration 10.0 uM
T3 sequence (whole entry): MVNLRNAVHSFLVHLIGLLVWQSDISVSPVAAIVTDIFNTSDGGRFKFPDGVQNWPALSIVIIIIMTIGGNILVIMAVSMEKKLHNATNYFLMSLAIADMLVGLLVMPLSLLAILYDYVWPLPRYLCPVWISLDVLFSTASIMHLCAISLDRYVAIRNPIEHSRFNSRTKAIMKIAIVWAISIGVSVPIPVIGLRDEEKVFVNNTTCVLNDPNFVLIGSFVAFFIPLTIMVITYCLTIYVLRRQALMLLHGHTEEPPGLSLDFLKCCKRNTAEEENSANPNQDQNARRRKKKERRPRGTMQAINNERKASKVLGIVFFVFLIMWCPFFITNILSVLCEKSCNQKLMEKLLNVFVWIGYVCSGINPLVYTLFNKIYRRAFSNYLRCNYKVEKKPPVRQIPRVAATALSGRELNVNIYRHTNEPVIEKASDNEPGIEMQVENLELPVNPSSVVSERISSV

[16] = target: Adenosine receptor A2b (Homo sapiens) (UniProt P29275); assay: A2B (h) Eurofins-Cerep binding assay; design: ligand concentration 5 nM; settings: filed as antagonist, Compound concentration 10.0 uM
Sequence of Adenosine receptor A2b (Homo sapiens) (P29275 whole entry): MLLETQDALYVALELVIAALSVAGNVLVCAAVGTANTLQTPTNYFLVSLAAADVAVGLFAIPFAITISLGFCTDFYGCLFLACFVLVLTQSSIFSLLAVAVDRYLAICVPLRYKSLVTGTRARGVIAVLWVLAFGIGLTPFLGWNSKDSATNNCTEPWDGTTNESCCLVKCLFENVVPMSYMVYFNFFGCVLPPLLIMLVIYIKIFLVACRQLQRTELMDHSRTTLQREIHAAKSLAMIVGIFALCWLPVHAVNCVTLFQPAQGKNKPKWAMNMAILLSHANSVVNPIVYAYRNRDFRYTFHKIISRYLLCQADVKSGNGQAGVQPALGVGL

[17] = target: Neuropeptide Y receptor type 1 (Homo sapiens) (UniProt P25929); assay: Y1 (h) Eurofins-Cerep binding assay; design: ligand concentration 0.025 nM; settings: filed as agonist, Compound concentration 10.0 uM
Sequence of Neuropeptide Y receptor type 1 (Homo sapiens) (P25929 whole entry): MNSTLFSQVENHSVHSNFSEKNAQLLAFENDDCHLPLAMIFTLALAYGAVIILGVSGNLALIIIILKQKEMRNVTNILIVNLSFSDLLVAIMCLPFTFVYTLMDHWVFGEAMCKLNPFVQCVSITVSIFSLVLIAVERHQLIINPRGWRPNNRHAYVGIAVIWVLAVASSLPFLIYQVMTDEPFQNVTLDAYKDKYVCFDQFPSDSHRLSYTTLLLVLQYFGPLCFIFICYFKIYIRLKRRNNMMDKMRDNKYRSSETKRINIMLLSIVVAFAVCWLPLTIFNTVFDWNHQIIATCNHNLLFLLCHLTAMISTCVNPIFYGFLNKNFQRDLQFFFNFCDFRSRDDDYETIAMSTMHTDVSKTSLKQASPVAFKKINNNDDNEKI

[18] = target: P2X receptor (Rattus norvegicus) (UniProt P51579+P49653+P51578+Q64663+P47824+P51577+P49654); assay: P2X Eurofins-Cerep binding assay; format: protein assay; design: ligand concentration 3 nM; settings: filed as agonist, Compound concentration 10.0 uM

SMILES: O=C(Nc1nc2ccccc2s1)c1cccc2c1CN(c1nc(C(=O)O)c(CCOc3ccc(-n4ncc5cncnc54)cc3)s1)CC2 [A-1107969]
- % Inhibition of Control Specific Binding (Mean n=2) [1]: -4.7%
- IC50 [2]: 2000 nM (not active)
- % Inhibition of Control Specific Binding (Mean n=2) [3]: -6.1%
- % Inhibition of Control Specific Binding (Mean n=2) [4]: -1.8%
- % Inhibition of Control Values (Mean n=2) [5]: 12.6%
- % Inhibition of Control Specific Binding (Mean n=2) [6]: -1%
- % Inhibition of Control Specific Binding (Mean n=2) [7]: 77.2%
- EC50 (MOLT-4): > 10000 nM (not active)
- % Inhibition of Control Specific Binding (Mean n=2) [8]: 7.9%
- % Inhibition of Control Specific Binding (Mean n=2) [9]: -12.1%
- IC50 (Bcl-2-like protein 1): 270 nM (not active)
- % Inhibition of Control Specific Binding (Mean n=2) [10]: -9.3%
- IC50 [11]: 3780 nM (not active)
- % Inhibition of Control Values (Mean n=2) [12]: -17%
- % Inhibition of Control Specific Binding (Mean n=2) [13]: -0.4%
- % Inhibition of Control Specific Binding (Mean n=2) [14]: 13.5%
- % Inhibition of Control Specific Binding (Mean n=2) [15]: 1.7%
- % Inhibition of Control Specific Binding (Mean n=2) [16]: -14.8%
- % Inhibition of Control Specific Binding (Mean n=2) [17]: -0.4%
- % Inhibition of Control Specific Binding (Mean n=2) [18]: -0.4%

SMILES: CN(C)CC#Cc1ccc(OCCCc2sc(N3CCc4cccc(C(=O)Nc5nc6ccccc6s5)c4C3)nc2C(=O)O)c(F)c1 [A-1155463]
- % Inhibition of Control Specific Binding (Mean n=2) [1]: 15.5%
- IC50 [2]: 14000 nM (not active)
- % Inhibition of Control Specific Binding (Mean n=2) [3]: 6.7%
- % Inhibition of Control Specific Binding (Mean n=2) [4]: 77.9%
- % Inhibition of Control Values (Mean n=2) [5]: 2%
- % Inhibition of Control Specific Binding (Mean n=2) [6]: 32.2%
- % Inhibition of Control Specific Binding (Mean n=2) [7]: 41.3%
- EC50 (MOLT-4): 214 nM (active)
- % Inhibition of Control Specific Binding (Mean n=2) [8]: 60.6%
- % Inhibition of Control Specific Binding (Mean n=2) [9]: -1.8%
- IC50 (Bcl-2-like protein 1): 0.55 nM (active)
- % Inhibition of Control Specific Binding (Mean n=2) [10]: 69.2%
- IC50 [11]: 382 nM (not active)
- % Inhibition of Control Values (Mean n=2) [12]: 22.1%
- % Inhibition of Control Specific Binding (Mean n=2) [13]: 1.4%
- % Inhibition of Control Specific Binding (Mean n=2) [14]: 27.1%
- % Inhibition of Control Specific Binding (Mean n=2) [15]: 4.7%
- % Inhibition of Control Specific Binding (Mean n=2) [16]: 32.8%
- % Inhibition of Control Specific Binding (Mean n=2) [17]: 12.5%
- % Inhibition of Control Specific Binding (Mean n=2) [18]: 13.5%
